Source: patent US20250136596A1, “MEMBRANE-ASSOCIATED TYROSINE- AND THREONINE-SPECIFIC CDC2-INHIBITORY KINASE (PKMYT1) INHIBITORS AND USES THEREOF” (Insilico Medicine IP Limited, priority 2022, published 2025)

Target: PKMYT1 (Homo sapiens (Human), UniProt Q99640)
Test: PKMYT1 HTRF Assay
Type: binding
Conditions: Tracer 178, GST-Tb; compound 10 μM to 0.5 nM; read-out: MYT1 HTRF IC50
Method in brief: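 Compound (final 10 μM to 0.5 nM) preincubated with PKMYT1 enzyme 15 min at 25° C, then Tracer 178 added for 60 min at 25° C. GST-Tb added, 15 min at 25° C, before HTRF readout.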

Sequence of PKMYT1 (Q99640 whole entry): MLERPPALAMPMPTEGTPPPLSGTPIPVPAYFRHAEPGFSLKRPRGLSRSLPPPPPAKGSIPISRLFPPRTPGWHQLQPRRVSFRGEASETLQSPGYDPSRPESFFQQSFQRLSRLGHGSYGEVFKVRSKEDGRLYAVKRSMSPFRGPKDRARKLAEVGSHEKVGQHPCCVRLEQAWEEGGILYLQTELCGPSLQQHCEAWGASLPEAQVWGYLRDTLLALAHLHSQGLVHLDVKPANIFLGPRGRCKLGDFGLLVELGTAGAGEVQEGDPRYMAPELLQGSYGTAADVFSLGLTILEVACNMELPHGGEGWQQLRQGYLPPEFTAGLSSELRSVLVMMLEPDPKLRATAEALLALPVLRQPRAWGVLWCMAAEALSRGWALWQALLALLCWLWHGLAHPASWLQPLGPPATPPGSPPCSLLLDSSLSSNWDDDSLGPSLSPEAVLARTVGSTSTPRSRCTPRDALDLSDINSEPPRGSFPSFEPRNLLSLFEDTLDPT

Row | SMILES | IC50
1 | Cc1ccc(O)c(C)c1-c1cnc2[nH]c(-c3cnn(CC(C)(C)O)c3)cc2c1C#N [Example 117, (S)-5-(3-hydroxy-2,6-dimethylphenyl)-2-(1-(2-hydroxy-2-methylpropyl)-1H-pyrazol-4-yl)-1H-pyrrolo[2,3-b]pyridine-4-carbonitrile] | < 10 nM
2 | COc1cncc(-c2cc3cc(-c4c(C)ccc(O)c4C)cnc3[nH]2)c1 [Example 8, 3-(2-(5-methoxypyridin-3-yl)-1H-pyrrolo[2,3-b]pyridin-5-yl)-2,4-dimethylphenol] | 10 to 50 nM
3 | Cc1ncc(-c2[nH]c3ncc(-c4c(C)ccc(O)c4C)c(C#N)c3c2C(F)(F)F)cn1 [Example 112, 5-(3-hydroxy-2,6-dimethylphenyl)-2-(2-methylpyrimidin-5-yl)-3-(trifluoromethyl)-1H-pyrrolo[2,3-b]pyridine-4-carbonitrile] | 10 to 50 nM
4 | Cc1ccc(O)c(C)c1-c1cnc2[nH]c(-c3cnc(N)nc3)c(Cl)c2c1C#N [Example 40, (R)-2-(2-aminopyrimidin-5-yl)-3-chloro-5-(3-hydroxy-2,6-dimethylphenyl)-1H-pyrrolo[2,3-b]pyridine-4-carbonitrile] | < 10 nM
5 | Cc1ccc(O)c(C)c1-c1cnc2[nH]c(-c3cnc(N4C[C@@H]5C[C@H]4CO5)nc3)c(C#CC(C)(C)O)c2n1 [Example 21, 3-(6-(2-((1S,4S)-2-oxa-5-azabicyclo[2.2.1]heptan-5-yl)pyrimidin-5-yl)-7-(3-hydroxy-3-methylbut-1-yn-1-yl)-5H-pyrrolo[2,3-b]pyrazin-2-yl)-2,4-dimethylphenol] | < 10 nM
6 | Cc1ccc(O)c(C)c1-c1cnc2[nH]c(-c3cnn(C)c3)cc2c1C#N [Example 118, (S)-5-(3-hydroxy-2,6-dimethylphenyl)-2-(1-methyl-1H-pyrazol-4-yl)-1H-pyrrolo[2,3-b]pyridine-4-carbonitrile] | < 10 nM
7 | Cc1ccc(O)c(C)c1-c1cnc2[nH]c(-c3cnc(N(C)C)nc3)c(Cl)c2c1C#N [Example 50, (S)-3-chloro-2-(2-(dimethylamino)pyrimidin-5-yl)-5-(3-hydroxy-2,6-dimethylphenyl)-1H-pyrrolo[2,3-b]pyridine-4-carbonitrile] | < 10 nM
8 | Cc1ccc(O)c(C)c1-c1cnc2[nH]c(-c3cnc(C(C)(C)O)nc3)cc2c1C#N [Example 86, 5-(3-hydroxy-2,6-dimethylphenyl)-2-(2-(2-hydroxypropan-2-yl)pyrimidin-5-yl)-1H-pyrrolo[2,3-b]pyridine-4-carbonitrile] | < 10 nM
9 | Cc1ncc(-c2nc3cc(-c4c(C)ccc(O)c4C)cnc3[nH]2)cn1 [Example 114, 2,4-dimethyl-3-(2-(2-methylpyrimidin-5-yl)-3H-imidazo[4,5-b]pyridin-6-yl)phenol] | 50 to 500 nM
10 | Cc1ncc(-c2cc3nc(-c4c(C)ccc(O)c4C)cnc3[nH]2)s1 [Example 19, 2,4-dimethyl-3-(6-(2-methylthiazol-5-y1)-5H-pyrrolo[2,3-b]pyrazin-2-yl)phenol] | 10 to 50 nM
11 | Cc1ccc(O)c(C)c1-c1cnc2[nH]c(-c3cnc(C(F)F)nc3)c(Cl)c2c1C#N [Example 54, (S)-3-chloro-2-(2-(difluoromethyl)pyrimidin-5-yl)-5-(3-hydroxy-2,6-dimethylphenyl)-1H-pyrrolo[2,3-b]pyridine-4-carbonitrile] | < 10 nM
12 | C#Cc1c(-c2cnc(C)nc2)[nH]c2ncc(-c3c(C)ccc(O)c3C)c(C#N)c12 [Example 109, (S)-3-ethynyl-5-(3-hydroxy-2,6-dimethylphenyl)-2-(2-methylpyrimidin-5-yl)-1H-pyrrolo[2,3-b]pyridine-4-carbonitrile] | < 10 nM
13 | Cc1ncc(-c2cc3c(C#N)c(-c4c(C)ccc(O)c4C)cnc3[nH]2)cn1 (atropisomer, axis not shown) [Example 32, (S)-5-(3-hydroxy-2,6-dimethylphenyl)-2-(2-methylpyrimidin-5-yl)-1H-pyrrolo[2,3-b]pyridine-4-carbonitrile] | < 10 nM
14 | Cc1ncc(-c2cc3c(N)c(-c4c(C)ccc(O)c4C)cnc3[nH]2)cn1 [Example 30, 3-(4-amino-2-(2-methylpyrimidin-5-yl)-1H-pyrrolo[2,3-b]pyridin-5-yl)-2,4-dimethylphenol] | 50 to 500 nM
15 | Cc1ccc(O)c(C)c1-c1cnc2[nH]c(-c3cnc(OC4COC4)nc3)cc2c1C#N [Example 53, (S)-5-(3-hydroxy-2,6-dimethylphenyl)-2-(2-(oxetan-3-yloxy)pyrimidin-5-yl)-1H-pyrrolo[2,3-b]pyridine-4-carbonitrile] | < 10 nM
16 | CC(=O)N1CC=C(c2cc3cc(-c4c(C)ccc(O)c4C)cnc3[nH]2)CC1 [Example 6, 1-(4-(5-(3-hydroxy-2,6-dimethylphenyl)-1H-pyrrolo[2,3-b]pyridin-2-yl)-3,6-dihydropyridin-1 (2H)-yl)ethan-1-one] | 50 to 500 nM
17 | Cc1ncc(-c2cc3c(C#N)c(-c4c(C)ccc(O)c4C)cnc3[nH]2)c(C)n1 (atropisomer, axis not shown) [Example 77, (R)-2-(2,4-dimethylpyrimidin-5-yl)-5-(3-hydroxy-2,6-dimethylphenyl)-1H-pyrrolo[2,3-b]pyridine-4-carbonitrile] | 10 to 50 nM

Row | SMILES | IC50
18 | Cc1ncc(-c2cc3nc(-c4c(C)ccc(O)c4C)cnc3[nH]2)cn1 [Example 15, 2,4-dimethyl-3-(6-(2-methylpyrimidin-5-yl)-5H-pyrrolo[2,3-b]pyrazin-2-yl)phenol] | 10 to 50 nM
19 | Cc1ccc(O)c(C)c1-c1cnc2[nH]c(-c3cnc(CN4CCCC4)nc3)cc2c1C#N [Example 93, (R)-5-(3-hydroxy-2,6-dimethylphenyl)-2-(2-(pyrrolidin-1-ylmethyl)pyrimidin-5-yl)-1H-pyrrolo[2,3-b]pyridine-4-carbonitrile] | < 10 nM
20 | Cc1ncc(-c2[nH]c3ncc(-c4c(C)ccc(O)c4C)nc3c2C)cn1 [Example 13, 2,4-dimethyl-3-(7-methyl-6-(2-methylpyrimidin-5-yl)-5H-pyrrolo[2,3-b]pyrazin-2-yl)phenol] | 10 to 50 nM
21 | Cc1ccc(O)c(C)c1-c1cnc2[nH]c(-c3cnn(C)c(=O)c3)cc2c1C#N [Example 65, 5-(3-hydroxy-2,6-dimethylphenyl)-2-(1-methyl-6-oxo-1,6-dihydropyridazin-4-yl)-1H-pyrrolo[2,3-b]pyridine-4-carbonitrile] | < 10 nM
22 | Cc1ccc(O)c(C)c1-c1cnc2[nH]c(-c3cnc(N4CCC(C(N)=O)C4)nc3)c(Cl)c2c1C#N [Example 73, (S)-1-(5-((R)-3-chloro-4-cyano-5-(3-hydroxy-2,6-dimethylphenyl)-1H-pyrrolo[2,3-b]pyridin-2-yl)pyrimidin-2-yl)pyrrolidine-3-carboxamide] | < 10 nM
23 | Cc1ncc(-c2cc3c(C#N)c(-c4c(C)ccc(O)c4C)cnc3[nH]2)s1 [Example 59, (R)-5-(3-hydroxy-2,6-dimethylphenyl)-2-(2-methylthiazol-5-yl)-1H-pyrrolo[2,3-b]pyridine-4-carbonitrile] | < 10 nM
24 | Cc1ccc(O)c(C)c1-c1cnc2[nH]c(-c3cnc(N4CCC(F)(F)C4)nc3)cc2c1C#N [Example 37, 2-(2-(3,3-difluoropyrrolidin-1-yl)pyrimidin-5-yl)-5-(3-hydroxy-2,6-dimethylphenyl)-1H-pyrrolo[2,3-b]pyridine-4-carbonitrile] | < 10 nM
25 | Cc1ncc(-c2cc3c(C(N)=O)c(-c4c(C)ccc(O)c4C)cnc3[nH]2)cn1 [Example 34, 5-(3-hydroxy-2,6-dimethylphenyl)-2-(2-methylpyrimidin-5-yl)-1H-pyrrolo[2,3-b]pyridine-4-carboxamide] | 50 to 500 nM
26 | Cc1ncc(-c2[nH]c3ncc(-c4c(C)ccc(O)c4C)cc3c2C#N)cn1 [Example 27, 5-(3-hydroxy-2,6-dimethylphenyl)-2-(2-methylpyrimidin-5-yl)-1H-pyrrolo[2,3-b]pyridine-3-carbonitrile] | 10 to 50 nM
27 | Cc1ccc(O)c(C)c1-c1cnc2[nH]c(-c3cnc(CN4CC(F)(F)C4)nc3)cc2c1C#N [Example 94, (R)-2-(2-((3,3-difluoroazetidin-1-yl)methyl)pyrimidin-5-yl)-5-(3-hydroxy-2,6-dimethylphenyl)-1H-pyrrolo[2,3-b]pyridine-4-carbonitrile] | < 10 nM
28 | COCCOc1ncc(-c2cc3c(C#N)c(-c4c(C)ccc(O)c4C)cnc3[nH]2)cn1 [Example 75, (R)-5-(3-hydroxy-2,6-dimethylphenyl)-2-(2-(2-methoxyethoxy)pyrimidin-5-yl)-1H-pyrrolo[2,3-b]pyridine-4-carbonitrile] | < 10 nM
29 | Cc1ccc(O)c(C)c1-c1cnc2[nH]c(-c3cnc(N)nn3)cc2c1C#N [Example 127, (S)-2-(3-amino-1,2,4-triazin-6-yl)-5-(3-hydroxy-2,6-dimethylphenyl)-1H-pyrrolo[2,3-b]pyridine-4-carbonitrile] | < 10 nM
30 | Cc1ccc(O)c(C)c1-c1cnc2[nH]c(-c3cnoc3)cc2c1C#N [Example 119, (S)-5-(3-hydroxy-2,6-dimethylphenyl)-2-(isoxazol-4-yl)-1H-pyrrolo[2,3-b]pyridine-4-carbonitrile] | < 10 nM
31 | Cc1ccc(O)c(C)c1-c1cnc2[nH]c(-c3cnc(N4CC(O)C4)nc3)cc2n1 [Example 18, 1-(5-(2-(3-hydroxy-2,6-dimethylphenyl)-5H-pyrrolo[2,3-b]pyrazin-6-yl)pyrimidin-2-yl)azetidin-3-ol] | < 10 nM
32 | Cc1ccc(O)c(C)c1-c1cnc2[nH]c(-n3ccnc3)cc2c1C#N [Example 122, (S)-5-(3-hydroxy-2,6-dimethylphenyl)-2-(1H-imidazol-1-yl)-1H-pyrrolo[2,3-b]pyridine-4-carbonitrile] | < 10 nM
33 | Cc1ncc(-c2[nH]c3ncc(-c4c(C)ccc(O)c4C)nc3c2C#CC(C)(C)O)cn1 [Example 20, 3-(7-(3-hydroxy-3-methylbut-1-yn-1-yl)-6-(2-methylpyrimidin-5-yl)-5H-pyrrolo[2,3-b]pyrazin-2-yl)-2,4-dimethylphenol] | < 10 nM
